Test results: publication PMC11956004 (2025)
Starred links: 1 amine or outer side, 2 acyl side, 3 side chain; linkers in the order of their positions; H or OH if unused. Positions of bridges follow the written chain, without caps; N, C: chain ends. Non-standard residues stand in square brackets, D forms with d. Residues, ends and D or L forms follow the SMILES beside them. Chains are numbered I, II in the order given. Actinocin(9to1) = Cc1c2oc3c(C)ccc(C(=O)[*:1])c3nc-2c(C(=O)[*:2])c(N)c1=O; NMeV = CN[C@H](C(=O)O)C(C)C; Sar = CNCC(=O)O

How the values were obtained:
[1] = test system: d(AGCCGT)2 (DNA, duplex) AGCCGT/ACGGCT; test: X-ray crystallography (1.57 Å); conditions: Mn2+ 3 mM, Li+ 30 mM, 25 mM MES pH 6.5, 3% PEG400, 20 °C
[2] = test system: AAAAGCCGAAAA (DNA, duplex) AAAAGCCGAAAA/TTTTCGGCTTTT; test: CD titration; conditions: Mg2+ 5 mM, Na+ (50 mM sodium cacodylate); 50 mM sodium cacodylate pH 7.2; 20 μM duplex, drug 1-4 equivalents
[3] = test system: AAAAGCCGAAAA (DNA, duplex) AAAAGCCGAAAA/TTTTCGGCTTTT; test: fluorescence quenching of Dox, Hill fit; conditions: Mg2+ 5 μM (so in the source); 50 μM Na cacodylate pH 7.3 (so in the source); 1 μM Dox alone, apparent; Kd decreases when ActD added
[4] = test system: AAAGCAACGAAA (DNA, duplex) AAAGCAACGAAA/TTTCGTTGCTTT; test: CD titration; conditions: Mg2+ 5 mM, Na+ (50 mM sodium cacodylate); 50 mM sodium cacodylate pH 7.2; 20 μM duplex, drug 1-4 equivalents
[5] = test system: AAGCAAACGAAA (DNA, duplex) AAGCAAACGAAA/TTTCGTTTGCTT; test: CD titration; conditions: Mg2+ 5 mM, Na+ (50 mM sodium cacodylate); 50 mM sodium cacodylate pH 7.2; 20 μM duplex, drug 1-4 equivalents
[6] = test system: AAAGCACGAAAA (DNA, duplex) AAAGCACGAAAA/TTTTCGTGCTTT; test: CD titration; conditions: Mg2+ 5 mM, Na+ (50 mM sodium cacodylate); 50 mM sodium cacodylate pH 7.2; 20 μM duplex, drug 1-4 equivalents

binding ([1]; ternary complex with actinomycin D, intercalated at C4pG5) | binding [2] | Kd [3] [nM] | binding [4] | binding [5] | binding [6] | binding ([1]; ternary complex with doxorubicin, intercalated at G2pC3) | Compound
yes | yes | 2130 | yes | yes | yes | – | COc1cccc2c1C(=O)c1c(O)c3c(c(O)c1C2=O)C[C@@](O)(C(=O)CO)C[C@@H]3O[C@H]1C[C@H](N)[C@H](O)[C@H](C)O1
– | yes | – | yes | yes | yes | yes | Cc1c2oc3c(C)ccc(C(=O)N[C@@H]4C(=O)N[C@H](C(C)C)C(=O)N5CCC[C@H]5C(=O)N(C)CC(=O)N(C)[C@@H](C(C)C)C(=O)O[C@@H]4C)c3nc-2c(C(=O)N[C@@H]2C(=O)N[C@H](C(C)C)C(=O)N3CCC[C@H]3C(=O)N(C)CC(=O)N(C)[C@@H](C(C)C)C(=O)O[C@@H]2C)c(N)c1=O (I: T[dV]P[Sar][NMeV] / II: T[dV]P[Sar][NMeV]; ester I:1-I:C, II:1-II:C; linker I:N-II:N via Actinocin(9to1))
